Like-named read-outs stand apart in the source and are kept apart here.

Series [1] concerns mammalian red blood cells. Particulars: 37° C., 1 hour.
Procedure: Candidate cationic peptides may be further tested for their toxicity to normal mammalian cells. An exemplary assay is a red blood cell (RBC) (erythrocyte) hemolysis assay. Briefly, in this assay, red blood cells are isolated from whole blood, typically by centrifugation, and washed free of plasma components. A 5% (v/v) suspension of erythrocytes in isotonic saline is incubated with different concentrations of peptide analogue. […] After incubation for approximately 1 hour at 37° C., the cells are centrifuged, and the absorbance of the supernatant at 540 nm is determined. A relative measure of lysis is determined by comparison to absorbance after complete lysis of erythrocytes using NH4Cl or equivalent (establishing a 100% value). A peptide with <10% lysis at 100 μg/ml is suitable. Preferably, there is <5% lysis at 100 μg/ml. Such peptides that are not lytic, or are only moderately lytic, are desirable and suitable for further screening.
Cationic peptides are tested for toxicity towards eukaryotic cells by measuring the extent of lysis of mammalian red blood cells (RBC). Briefly, in this assay, red blood cells are separated from whole blood by centrifugation and washed free of plasma components. A 5% (v/v) washed red blood cell suspension is prepared in isotonic saline. An aliquot of peptide in formulation is then added and mixed in. After incubation at 37° C. for 1 hour with constant agitation, the solution is centrifuged and the supernatant measured for absorbance at 540 nm to detect released hemoglobin.
A combination of cationic peptide and antibiotic agent is tested for toxicity towards eukaryotic cells by measuring the extent of lysis of mammalian red blood cells. Briefly, red blood cells are separated from whole blood by centrifugation, washed free of plasma components, and resuspended to a 5% (v/v) suspension in isotonic saline. […] Following incubation with constant agitation at 37° C. for 1 hour, the solution is centrifuged, and the absorbance of the supernatant is measured at 540 nm, which detects released hemoglobin. […]
Series [2] concerns H460, non-small lung tumor. The experiment in a line: Cell death by Cytotox (Promega) lactate dehydrogenase release. The conditions noted are these: LDH release. Type of series: cell-based. How it is done:
(§1) In addition, APO-peptides and parent peptides are tested against a panel of cancer cell lines. Cell death is measured using the Cytotox (Promega) assay kit which measures the release of lactate dehydrogenase.
(§2) PBL, peripheral blood lymphocytes; HUVEC, human umbilical vein endothelial cells; H460,non-small lung tumor; K562, chronic myelogenous leukemia; DoHH-2, B-cell cell lymphoma; P388, lymphocytic leukemia; P388ADR, lymphocytic leukemia, multidrug resistant; MCF-7, breast carcinoma; MCF-7ADR, breast carcinoma, multidrug resistant.

The test system of series [3] is P388ADR, lymphocytic leukemia, multidrug resistant. The series is described as above. Type of series: cell-based. The conditions noted are these: LDH release. As for the experimental part: as §1, §2
The subject of series [4] is K562, chronic myelogenous leukemia. Described as above. Format: cell-based. Particulars: LDH release. How it is done: as §1, §2
Series [5] concerns HUVEC, human umbilical vein endothelial cells. The description is as above. Type of series: cell-based. Particulars: LDH release. As for the experimental part: as §1, §2
The test system of series [6] is DoHH-2, B-cell cell lymphoma. The description is as above. Format: cell-based. Particulars: LDH release. As for the experimental part: as §1, §2
Series [7] concerns P388, lymphocytic leukemia. The series is described as above. Format: cell-based. Particulars: LDH release. As for the experimental part: as §1, §2
The subject of series [8] is PBL, peripheral blood lymphocytes. The series is described as above. Particulars: LDH release. Type of series: cell-based. How it is done:
as §1, §2

A further series has as its system S. aureus. Format: cell-based. The conditions noted are these: for Peptide MIC values: agarose dilution.
For another series, the system named is bacterial isolates. The experiment in a line: microbe, parasite or virus in culture. Type of series: cell-based. The conditions noted are these: E. coli SBECO1.
The next series deals with K. pneumoniae. Type of series: cell-based.
The subject of another series is S. maltophilia. Format: cell-based.
The test system of another series is P. aeruginosa. Type of series: cell-based. The conditions noted are these: for Peptide MIC values: agarose dilution.
For a further series, the system named is H. influenzae. The experiment in a line: Agarose dilution assay (MIC). Format: cell-based. The conditions noted are these: H. influenzae strain HIN002.
In the next series the test system is E. cloacae. Type of series: cell-based.
The next series has as its system P. vulgaris. The experiment in a line: Agarose dilution assay (MIC). Type of series: cell-based.
Another series relates to E. faecalis. Type of series: cell-based. The conditions noted are these: E. faecalis strain EFS002.
Another series relates to S. marcescens. Format: cell-based. Particulars: for Peptide MIC values: agarose dilution.
Another series has as its system S. pneumoniae. The experiment in a line: Agarose dilution assay (MIC). Type of series: cell-based. Particulars: for Peptide MIC values: agarose dilution.
The next series concerns E. faecium. Type of series: cell-based. Particulars: for Peptide MIC values: agarose dilution.
The subject of another series is A. calcoaceticus. Format: cell-based.
In a further series the test system is E. coli. Format: cell-based. Particulars: for Peptide MIC values: agarose dilution.
The subject of another series is S. epidermidis. Format: cell-based.
Series [9] has as its system MSSA (Smith, ATCC # 19640). Put plainly: In vivo efficacy, MSSA infection. Details: species or system S. aureus. Particulars: mice, ip, formulation D, below 14.5 mg/kg.
Series [10] deals with E. coli strain ML-35 inner membrane. Format: cell-based. Particulars: cells pre-incubated with valinomycin.

Turning to `CC[C@H](C)[C@H](NC(=O)CNC(=O)[C@@H](NC(=O)[C@H](CCCCN)NC(=O)[C@H](CCCCN)NC(=O)[C@H](Cc1ccccc1)NC(=O)[C@H](CC(C)C)NC(=O)[C@H](CCCCN)NC(=O)[C@H](Cc1c[nH]c2ccccc12)NC(=O)[C@@H](N)CCCCN)[C@@H](C)CC)C(=O)NCC(=O)N[C@@H](C)C(=O)N[C@H](C(=O)N[C@@H](CC(C)C)C(=O)N[C@@H](CCCCN)C(=O)N[C@H](C(=O)N[C@@H](CC(C)C)C(=O)N[C@H](C(=O)N[C@H](C(=O)NCC(=O)N[C@@H](CC(C)C)C(=O)N1CCC[C@H]1C(=O)N[C@@H](C)C(=O)N[C@@H](CC(C)C)C(=O)N[C@H](C(=O)N[C@@H](CO)C(=O)O)[C@@H](C)CC)[C@@H](C)O)[C@@H](C)O)C(C)C)C(C)C` [MBI 27], the “% Lysis” value in [1] is listed as 2.7%.
Take `CC[C@H](C)[C@H](NC(=O)CNC(=O)[C@@H](NC(=O)[C@H](CCCCN)NC(=O)[C@H](CCCCN)NC(=O)[C@H](Cc1ccccc1)NC(=O)[C@H](CC(C)C)NC(=O)[C@H](CCCCN)NC(=O)[C@H](Cc1c[nH]c2ccccc12)NC(=O)[C@@H](N)CCCCN)[C@@H](C)CC)C(=O)NCC(=O)N[C@@H](C)C(=O)N[C@H](C(=O)N[C@@H](CC(C)C)C(=O)N[C@@H](CCCCN)C(=O)N[C@H](C(=O)N[C@@H](CC(C)C)C(=O)N[C@H](C(=O)N[C@H](C(=O)NCC(=O)N[C@@H](CC(C)C)C(=O)N1CCC[C@H]1C(=O)N[C@@H](C)C(=O)N[C@@H](CC(C)C)C(=O)N[C@@H](CCCCN)C(=O)N[C@@H](CC(C)C)C(=O)N[C@H](C(=O)N[C@@H](CCCCN)C(=O)O)[C@@H](C)O)[C@@H](C)O)[C@@H](C)O)C(C)C)C(C)C` [MBI 28]: the “% Lysis” value in series [1] is listed as 4.7%.
On to ILKKYPYYPYRRK [MBI 11A3CN], for which the “LC50 ± S.E., H460” value in [2] is >500 µg/mL. Moreover, the “LC50 ± S.E., P388 ADR” value in series [3] was >300 µg/mL. The “LC50 ± S.E., K562” value in series [4] is >500 µg/mL. The “LC50 ± S.E., HUVEC” value in series [5] was >500 µg/mL. In addition, in series [6], the “LC50 ± S.E., DoHH-2” value is >500 µg/mL. Further, the “LC50 ± S.E., P388” value in series [7] was >300 µg/mL. For the same molecule, the “LC50 ± S.E., PBL” value in series [8] is >500 µg/mL. Moreover, the MIC against S. aureus (S. aureus strain SA004) is 32 µg/mL; in the series with K. pneumoniae (K. pneumoniae strain KP001), >128 µg/mL; in the series with S. maltophilia (S. maltophilia strain SMA001), >128 µg/mL; with P. aeruginosa (P. aeruginosa strain PA002) it was >128 µg/mL; with H. influenzae it was >128 µg/mL; with E. cloacae (E. cloacae strain ECL007), >128 µg/mL. Moreover, the MIC against P. vulgaris (P. vulgaris strain SBPV1) was >128 µg/mL; in the series with E. faecalis, >128 µg/mL; with S. marcescens (S. marcescens strain SBSM2) it was >128 µg/mL; in the series on S. pneumoniae (S. pneumoniae strain SBSPN3), >128 µg/mL; against E. faecium (E. faecium strain EFM003), 64 µg/mL; in the series with A. calcoaceticus (A. calcoaceticus strain AC001) it was >128 µg/mL. For the same molecule, the MIC against E. coli (E. coli strain ECO002) is >128 µg/mL; against S. epidermidis (S. epidermidis strain SE002), 128 µg/mL. For the same molecule, the “Peptide MIC values” is 16 µg/mL with S. aureus (S. aureus ATCC 29213); 128 µg/mL in the series with S. aureus (S. aureus MRSA9); >128 µg/mL in the series on S. aureus (S. aureus MRSA13); >128 µg/mL in the series with S. aureus (S. aureus MRSA17); >128 µg/mL in the series on S. aureus (S. aureus SA206); >128 µg/mL with P. aeruginosa (P. aeruginosa ATCC 27853). In addition, the “Peptide MIC values” in the series on P. aeruginosa (P. aeruginosa NCTC 10662) was >128 µg/mL; with P. vulgaris (agarose dilution, P. vulgaris ATCC 13315), >128 µg/mL; in the series on S. marcescens (S. marcescens SM76), >128 µg/mL; with S. marcescens (S. marcescens SM82), >128 µg/mL; with S. pneumoniae (S. pneumoniae 406LE8), >128 µg/mL; with S. pneumoniae (S. pneumoniae 60120), >128 µg/mL. Further, the “Peptide MIC values” is >128 µg/mL in the series on S. pneumoniae (S. pneumoniae ATCC 49619); >128 µg/mL in the series with E. faecium; >128 µg/mL in the series with E. coli (E. coli ATCC 25922); >128 µg/mL in the series with E. coli (E. coli ESS); 64 µg/mL with E. coli (E. coli NCTC 10418). Further, the “Mupirocin MIC + Peptide” value in the series with bacterial isolates worked out at 30 µg/mL. In addition, the “Peptide MIC + Mupirocin” value in the series with bacterial isolates worked out at 8 µg/mL. Also, in the series with bacterial isolates (Mupirocin section), the “Peptide MIC Alone” value is 64 µg/mL. In addition, the FIC with bacterial isolates (peptide + Mupirocin) worked out at 0.43.
Take ILPWKWPWWPWRR [MBI 10CN]: the MIC with S. aureus (S. aureus SA003) was 2 µg/mL; with K. pneumoniae (K. pneumoniae KP002), 64 µg/mL; against S. maltophilia (S. maltophilia SMA002) it was 64 µg/mL; with P. aeruginosa (P. aeruginosa PA002), >128 µg/mL; in the series on E. cloacae (E. cloacae ECL007) it was >128 µg/mL; in the series on S. marcescens (S. marcescens SMS004), >128 µg/mL. Also, the MIC was 2 µg/mL in the series on E. faecium (E. faecium EFM003); 64 µg/mL with A. calcoaceticus (A. calcoaceticus AC001); 32 µg/mL against E. coli (E. coli ECO001); 16 µg/mL with E. coli (E. coli SBECO2); 4 µg/mL against S. epidermidis (S. epidermidis SE010). The “Peptide MIC values” in the series on S. aureus (S. aureus MRSA9) was 1 µg/mL; with S. aureus (S. aureus MRSA13) it was 4 µg/mL; in the series on S. aureus (S. aureus MRSA17) it was 2 µg/mL; with P. aeruginosa (P. aeruginosa ATCC 27853), >128 µg/mL; in the series on P. aeruginosa (P. aeruginosa NCTC 10662) it was >128 µg/mL; with S. marcescens (S. marcescens SM82), >128 µg/mL. In addition, the “Peptide MIC values” in the series on S. pneumoniae (S. pneumoniae 406LE8) is >128 µg/mL; in the series on S. pneumoniae (S. pneumoniae 60120) it was 64 µg/mL; in the series on S. pneumoniae (S. pneumoniae ATCC 49619), 32 µg/mL; in the series with E. faecium, 4 µg/mL; with E. coli (E. coli ATCC 25922) it was 16 µg/mL; in the series on E. coli (E. coli NCTC 10418) it was 8 µg/mL. Also, the survival result in [9] is listed as “clear dose-dependent survival”. The “ONPG hydrolysis diminished compared to no pre-incubation” value in [10] was “approximately 50%”.

The record behind these values is patent US20020035061A1, “COMPOSITIONS AND METHODS FOR TREATING INFECTIONS USING CATIONIC PEPTIDES ALONE OR IN COMBINATION WITH ANTIBIOTICS” (priority 1996, published 2002).
